Test results reported in patent publication US11066416B2, “Rapafucin derivative compounds and methods of use thereof” (The Johns Hopkins University, priority 2016, dated 2021).

Experiments:
Assay type in all cases: cell-based
H929 = experiment: Cell proliferation assay (Prolif.), H929; details: H929 cells; Table 11
Experimental: Cell Proliferation Assay (Prolif.) Guo et al. (2018) Nat. Chem. 11:254-63. Specific cell lines are indicated in each assay and cultured in complete growth media. Activity is scored according to the IC50 values relative to DMSO control. “Low” indicates an IC50 greater than 600 nM, “Medium” indicates an IC50 between 300 nM and 600 nM “High” indicates an IC50 less than 300 nM. “Rel.Uptake” refers to uptake activity characterization relative to a single concentration assay. “Low” indicates a response greater than 0.6 times the activity relative to DMSO, “Medium” indicates a response between 0.6 and 0.3 times the activity relative to DMSO, “High” indicates a response less than 0.3 times the activity relative to DMSO.

[1] = test system: nucleoside uptake (3H-Thymidine); experiment: Rel.Uptake: nucleoside uptake, single concentration assay, cell line as indicated in each table; details: 293T, nucleoside uptake, response relative to DMSO
Experimental: (§1) Nucleoside Uptake Assay (uptake). Nuceloside uptake assays were performed with using 3H-Thymidine as described in Guo et al. (2018) Nat. Chem. 11:254-63. Specific cell lines are indicated in each assay and cultured in complete growth media. Activity is scored according to the IC50 values relative to DMSO control. “Low” indicates an IC50 greater than 600 nM, “Medium” indicates an IC50 between 300 nM and 600 nM “High” indicates an IC50 less than 300 nM. “Rel.Uptake” refers to uptake activity characterization relative to a single concentration assay. “Low” indicates a response greater than 0.6 times the activity relative to DMSO, “Medium” indicates a response between 0.6 and 0.3 times the activity relative to DMSO, “High” indicates a response less than 0.3 times the activity relative to DMSO.

[2] = test system: nucleoside uptake (3H-Thymidine); experiment: Nucleoside uptake assay (uptake) using 3H-Thymidine, IC50, cell line as indicated in each table (none given in Table 8); details: 3H-Thymidine uptake; cell line not given
Experimental: as §1

Row | IC50 [2] | Compound | Prolif, H929 (H929) | Rel. Uptake, 293T [1]
1 | – | COc1cc(CC[C@H]2OC(=O)[C@@H]3CCCCN3C(=O)C(=O)C(C)(C)COC(=O)C=CCCN(C)C(=O)[C@@H](Cc3ccccc3)NC(=O)CN(C)C(=O)[C@@H](Cc3ccccc3)NC(=O)[C@H](Cc3ccc(O)cc3)N(C)C(=O)COc3cccc2c3)cc(OC)c1OC [Compound 1566] | medium | medium
2 | – | COc1cc(CC[C@H]2OC(=O)[C@@H]3CCCCN3C(=O)C(=O)C(C)(C)COC(=O)C=CCCN(C)C(=O)[C@@H](Cc3ccccc3)NC(=O)CN(C)C(=O)[C@@H](Cc3ccccc3)NC(=O)[C@H](Cc3ccc(O)cc3)N(C)C(=O)COc3cccc2c3)cc(O)c1OC [Compound 1567] | medium | medium
3 | – | COc1cc(O)c(CC[C@H]2OC(=O)[C@@H]3CCCCN3C(=O)C(=O)C(C)(C)COC(=O)C=CCCN(C)C(=O)[C@@H](Cc3ccccc3)NC(=O)CN(C)C(=O)[C@@H](Cc3ccccc3)NC(=O)[C@H](Cc3ccc(O)cc3)N(C)C(=O)COc3cccc2c3)cc1OC [Compound 1568] | low | low
4 | – | COc1cc(CC[C@H]2OC(=O)[C@@H]3CCCCN3C(=O)C(=O)C(C)(C)COC(=O)C=CCCN(C)C(=O)[C@@H](Cc3ccccc3)NC(=O)CN(C)C(=O)[C@@H](Cc3ccccc3)NC(=O)[C@H](Cc3ccc(O)cc3)N(C)C(=O)COc3cccc2c3)cc(F)c1OC [Compound 1569] | low | low
5 | – | COc1cc(F)c(CC[C@H]2OC(=O)[C@@H]3CCCCN3C(=O)C(=O)C(C)(C)COC(=O)C=CCCN(C)C(=O)[C@@H](Cc3ccccc3)NC(=O)CN(C)C(=O)[C@@H](Cc3ccccc3)NC(=O)[C@H](Cc3ccc(O)cc3)N(C)C(=O)COc3cccc2c3)cc1OC [Compound 1570] | medium | medium
6 | – | COc1ccc(CC[C@H]2OC(=O)[C@@H]3CCCCN3C(=O)C(=O)C(C)(C)COC(=O)C=CCCN(C)C(=O)[C@@H](Cc3ccccc3)NC(=O)CN(C)C(=O)[C@@H](Cc3ccccc3)NC(=O)[C@H](Cc3ccc(O)cc3)N(C)C(=O)COc3cccc2c3)c(F)c1OC [Compound 1571] | low | low
7 | – | COc1ccc(CC[C@H]2OC(=O)[C@@H]3CN(C(=O)OCC4c5ccccc5-c5ccccc54)CCN3C(=O)C(=O)C(C)(C)COC(=O)C=CCCN(C)C(=O)[C@@H](Cc3ccccc3)NC(=O)CN(C)C(=O)[C@@H](Cc3ccccc3)NC(=O)[C@H](Cc3ccc(O)cc3)N(C)C(=O)COc3cccc2c3)cc1OC [Compound 1572] | low | low
8 | – | COc1ccc(CC[C@H]2OC(=O)[C@@H]3CNCCN3C(=O)C(=O)C(C)(C)COC(=O)C=CCCN(C)C(=O)[C@@H](Cc3ccccc3)NC(=O)CN(C)C(=O)[C@@H](Cc3ccccc3)NC(=O)[C@H](Cc3ccc(O)cc3)N(C)C(=O)COc3cccc2c3)cc1OC [Compound 1573] | low | low
9 | – | COc1ccc(CC[C@H]2OC(=O)[C@@H]3CN(C)CCN3C(=O)C(=O)C(C)(C)COC(=O)C=CCCN(C)C(=O)[C@@H](Cc3ccccc3)NC(=O)CN(C)C(=O)[C@@H](Cc3ccccc3)NC(=O)[C@H](Cc3ccc(O)cc3)N(C)C(=O)COc3cccc2c3)cc1OC [Compound 1574] | low | low
10 | – | COc1ccc(CC[C@H]2OC(=O)[C@@H]3CCCCN3C(=O)C(=O)C(C)(C)COC(=O)C=CCCN(C)C(=O)[C@@H](Cc3ccccc3)NC(=O)CN(C)C(=O)[C@@H](Cc3ccccc3)NC(=O)[C@H](Cc3ccc(O)cc3)N(C)C(=O)COc3ccc(F)c2c3)cc1OC [Compound 1575] | low | low
11 | – | COc1ccc(CC[C@H]2OC(=O)[C@@H]3CCCCN3C(=O)C(=O)C(C)(C)COC(=O)C=CCCN(C)C(=O)[C@@H](Cc3ccccc3)NC(=O)CN(C)C(=O)[C@@H](Cc3ccccc3)NC(=O)[C@H](Cc3ccc(O)cc3)N(C)C(=O)COc3cc(F)cc2c3)cc1OC [Compound 1576] | medium | medium
12 | – | COc1ccc(CC[C@H]2OC(=O)[C@@H]3CCCCN3C(=O)C(=O)C(C)(C)COC(=O)C=CCCN(C)C(=O)[C@@H](Cc3ccccc3)NC(=O)CN(C)C(=O)[C@@H](Cc3ccccc3)NC(=O)[C@H](Cc3ccc(O)cc3)N(C)C(=O)COc3cccc2c3)c(OC)c1OC [Compound 1577] | medium | medium
13 | – | COc1ccc(CC[C@H]2OC(=O)[C@@H]3CCCCN3C(=O)C(=O)C(C)(C)COC(=O)C=CCCN(C)C(=O)[C@@H](Cc3ccccc3)NC(=O)CN(C)C(=O)[C@@H](Cc3ccccc3)NC(=O)[C@H](Cc3ccc(O)cc3)N(C)C(=O)COc3cc2ccc3F)cc1OC [Compound 1578] | low | low
14 | – | COc1ccc(CC[C@H]2OC(=O)[C@@H]3CCCCN3C(=O)C(=O)C(C)(C)COC(=O)C=CCCN(C)C(=O)[C@@H](Cc3ccccc3)NC(=O)CN(C)C(=O)[C@@H](Cc3ccccc3)NC(=O)[C@H](Cc3ccc(O)cc3)N(C)C(=O)COc3cccc2c3F)cc1OC [Compound 1579] | medium | medium
15 | – | COc1ccc(CC[C@H]2OC(=O)[C@@H]3CCCCN3C(=O)C(=O)C(C)(C)COC(=O)C=CCCN(C)C(=O)[C@@H](Cc3ccccc3)NC(=O)CN(C)C(=O)[C@@H](Cc3ccccc3)NC(=O)[C@H](Cc3ccc(O)cc3)N(C)C(=O)COc3cncc2c3)cc1OC [Compound 1580] | low | low
16 | – | COc1cc(OC)c(OC)cc1CC[C@H]1OC(=O)[C@@H]2CCCCN2C(=O)C(=O)C(C)(C)COC(=O)C=CCCN(C)C(=O)[C@@H](Cc2ccccc2)NC(=O)CN(C)C(=O)[C@@H](Cc2ccccc2)NC(=O)[C@H](Cc2ccc(O)cc2)N(C)C(=O)COc2cccc1c2 [Compound 1581] | medium | medium
17 | – | COc1cc(CC[C@H]2OC(=O)[C@@H]3CCCCN3C(=O)C(=O)C(C)(C)COC(=O)C=CCCN(C)C(=O)[C@@H](Cc3ccccc3)NC(=O)CN(C)C(=O)[C@@H](Cc3ccccc3)NC(=O)[C@H](Cc3ccc(O)cc3)N(C)C(=O)COc3cccc2c3)c(OC)c(OC)c1 [Compound 1582] | low | low
18 | – | COc1ccc(OC)c(OC)c1CC[C@H]1OC(=O)[C@@H]2CCCCN2C(=O)C(=O)C(C)(C)COC(=O)C=CCCN(C)C(=O)[C@@H](Cc2ccccc2)NC(=O)CN(C)C(=O)[C@@H](Cc2ccccc2)NC(=O)[C@H](Cc2ccc(O)cc2)N(C)C(=O)COc2cccc1c2 [Compound 1583] | low | low
19 | – | COc1ccc(CC[C@H]2OC(=O)[C@@H]3CCCCN3C(=O)C(=O)C(C)(C)COC(=O)C=CCCN(C)C(=O)[C@@H](Cc3ccccc3)NC(=O)CN(C)C(=O)[C@@H](Cc3ccccc3)NC(=O)[C@H](Cc3ccc(O)cc3)N(C)C(=O)COc3cccc2c3)c(O)c1OC [Compound 1584] | low | low
20 | 27.9 nM | COc1ccc(CC[C@H]2OC(=O)[C@@H]3CCCCN3C(=O)C(=O)C(C)(C)COC(=O)/C=C/CCN(C)C(=O)[C@H](C(C)C)N(C)C(=O)[C@@H]3CCCN3C(=O)[C@@H](Cc3ccccc3)N(C)C(=O)CNC(=O)CCC(=O)Nc3cccc2c3)cc1OC [Compound 1605] | – | –
21 | 23.7 nM | COc1ccc(CC[C@H]2OC(=O)[C@@H]3CCCCN3C(=O)C(=O)C(C)(C)COC(=O)/C=C/CCN(C)C(=O)[C@H](C(C)C)N(C)C(=O)[C@@H]3CCCN3C(=O)[C@@H](Cc3ccccc3)N(C)C(=O)[C@H](C)NC(=O)CCC(=O)Nc3cccc2c3)cc1OC [Compound 1606] | – | –
22 | 18 nM | CCC[C@@H]1NC(=O)CCC(=O)Nc2cccc(c2)[C@@H](CCc2ccc(OC)c(OC)c2)OC(=O)[C@@H]2CCCCN2C(=O)C(=O)C(C)(C)COC(=O)/C=C/CCN(C)C(=O)[C@H](C(C)C)N(C)C(=O)[C@@H]2CCCN2C(=O)[C@@H](Cc2ccccc2)N(C)C1=O [Compound 1607] | – | –
23 | 54.1 nM | COc1ccc(CC[C@H]2OC(=O)[C@@H]3CCCCN3C(=O)C(=O)C(C)(C)COC(=O)/C=C/CCN(C)C(=O)[C@H](C(C)C)N(C)C(=O)[C@@H]3CCCN3C(=O)[C@@H](Cc3ccccc3)N(C)C(=O)[C@H](CC(C)C)NC(=O)CCC(=O)Nc3cccc2c3)cc1OC [Compound 1608] | – | –
24 | 55 nM | COc1ccc(CC[C@H]2OC(=O)[C@@H]3CCCCN3C(=O)C(=O)C(C)(C)COC(=O)/C=C/CCN(C)C(=O)[C@H](C(C)C)N(C)C(=O)[C@@H]3CCCN3C(=O)[C@@H](Cc3ccccc3)N(C)C(=O)[C@H](Cc3ccccc3)NC(=O)CCC(=O)Nc3cccc2c3)cc1OC [Compound 1609] | – | –
25 | 16.5 nM | COc1ccc(CC[C@H]2OC(=O)[C@@H]3CCCCN3C(=O)C(=O)C(C)(C)COC(=O)/C=C/CCN(C)C(=O)[C@H](C(C)C)N(C)C(=O)[C@@H]3CCCN3C(=O)[C@@H](Cc3ccccc3)N(C)C(=O)[C@H](c3ccccc3)NC(=O)CCC(=O)Nc3cccc2c3)cc1OC [Compound 1610] | – | –
26 | 48.9 nM | COc1ccc(CC[C@H]2OC(=O)[C@@H]3CCCCN3C(=O)C(=O)C(C)(C)COC(=O)/C=C/CCN(C)C(=O)[C@H](C(C)C)N(C)C(=O)[C@@H]3CCCN3C(=O)[C@@H](Cc3ccccc3)N(C)C(=O)CNC(=O)COc3cccc2c3)cc1OC [Compound 1611] | – | –
